Source: patent US8906826B2, “Herbicidal compositions comprising 4-amino-3-chloro-5-fluoro-6-(4-chloro-2-fluoro-3-methoxyphenyl) pyridine-2-carboxylic acid or a derivative thereof and imidazolinones” (Dow AgroSciences, LLC, priority 2012, dated 2014)

How the values were obtained:
ECHCO = assay: Postemergence foliar-applied, direct seeded rice weeds (Example I); type: in vivo, Echinochloa colona (L.) Link
Source text: (§1) Seeds or nutlets of the desired test plant species were planted in a soil matrix prepared by mixing a loam or sandy loam soil (e.g., 28.6 percent silt, 18.8 percent clay, and 52.6 percent sand, with a pH of about 5.8 and an organic matter content of about 1.8 percent) and calcareous grit in an 80 to 20 ratio. The soil matrix was contained in plastic pots with a volume of 1 quart and a surface area of 83.6 cm^2. When required to ensure good germination and healthy plants, a fungicide treatment and/or other chemical or physical treatment was applied. The plants were grown for 8-22 days in a greenhouse with an approximate 14 h photoperiod which was maintained at about 29° C. during the day and 26° C. during the night. Nutrients (Peters Excel® 15-5-15 5-Ca 2-Mg and iron chelate) were applied in the irrigation solution as needed and water was added on a regular basis. Supplemental lighting was provided with overhead metal halide 1000-Watt lamps as necessary. The plants were employed for testing when they reached the first through fourth true leaf stage.
(§2) Treatments consisted of the acid or esters of 4-amino-3-chloro-5-fluoro-6-(4-chloro-2-fluoro-3-methoxy-phenyl)pyridine-2-carboxylic acid (Compound A), each formulated as an SC (suspension concentrate), and various herbicidal components alone and in combination. Forms of compound A were applied on an acid equivalent basis.
(§3) Other herbicidal components were applied on an acid equivalent basis and include acetolactate synthase (ALS)-inhibiting herbicides (imidazolinone chemical class) imazethapyr ammonium salt formulated as Newpath®, imazamox ammonium salt formulated as Beyond®, imazapic ammonium salt formulated as Plateau®, imazapyr isopropylamine salt formulated as Arsenal®, imazamethabenz-methyl (technical material) and imazaquin isopropylamine salt formulated as Scepter®/Imagine®.
(§4) Treatment requirements were calculated based upon the rates being tested, the concentration of active ingredient or acid equivalent in the formulation, and a 12 mL application volume at a rate of 187 L/ha.
For treatments comprised of formulated compounds, measured amounts of compounds were placed individually in 25 mL glass vials and diluted in a volume of 1.25% (v/v) Agri-Dex® crop oil concentrated to obtain 12× stock solutions. […]
(§5) For treatments comprised of formulated and technical compounds, weighed amounts of the technical materials were placed individually in 25 mL glass vials and dissolved in a volume of 97:3 v/v acetone/DMSO to obtain 12× stock solutions, and measured amounts of the formulated compounds were placed individually in 25 mL glass vials and diluted in a volume of 1.5% (v/v) crop oil concentrate or water to obtain 12× stock solutions. […]

LEFCH = assay: In-water applied, transplanted paddy rice weeds (Example II); type: in vivo, Leptochloa chinensis (L.) Nees
Experimental: Weed seeds or nutlets of the desired test plant species were planted in puddled soil (mud) prepared by mixing a shredded, non-sterilized mineral soil (50.5 percent silt, 25.5 percent clay, and 24 percent sand, with a pH of about 7.6 and an organic matter content of about 2.9 percent) and water at a 1:1 volumetric ratio. The prepared mud was dispensed in 365 mL aliquots into 16-ounce (oz.) non-perforated plastic pots with a surface area of 86.59 square centimeters (cm^2) leaving a headspace of 3 centimeters (cm) in each pot. Mud was allowed to dry overnight prior to planting or transplanting. Rice seeds were planted in Sun Gro MetroMix® 306 planting mixture, which typically has a pH of about 6.0 to about 6.8 and an organic matter content of about 30 percent, in plastic plug trays. Seedlings at the second or third leaf stage of growth were transplanted into 860 mL of mud contained in 32-oz. non-perforated plastic pots with a surface area of 86.59 cm^2 4 days prior to herbicide application. The paddy was created by filling the headspace of the pots with 2.5 to 3 cm of water. When required to ensure good germination and healthy plants, a fungicide treatment and/or other chemical or physical treatment was applied. The plants were grown for 4-22 days in a greenhouse with an approximate 14 h photoperiod which was maintained at about 29° C. during the day and about 26° C. during the night. Nutrients were added as Osmocote® (19:6:12, N:P:K+minor nutrients) at 2 g per 16-oz. pot and 4 g per 32-oz. pot. Water was added on a regular basis to maintain the paddy flood, and supplemental lighting was provided with overhead metal halide 1000-Watt lamps as necessary. The plants were employed for testing when they reached the first through fourth true leaf stage.
Treatments consisted of the acid or esters of 4-amino-3-chloro-5-fluoro-6-(4-chloro-2-fluoro-3-methoxy-phenyl)pyridine-2-carboxylic acid (compound A) each formulated as an SC and various herbicidal components alone and in combination. Forms of compound A were applied on an acid equivalent basis. […]
Treatment requirements for each compound or herbicidal component were calculated based upon the rates being tested, the concentration of active ingredient or acid equivalent in the formulation, an application volume of 2 mL per component per pot, and an application area of 86.59 cm^2 per pot.
For formulated compounds, a measured amount was placed in an individual 100 or 200 mL glass vial and was dissolved in a volume of 1.25% (v/v) Agri-Dex® crop oil concentrate to obtain application solutions. […]

IPOHE = assay: Postemergence foliar-applied, direct seeded rice weeds (Example I); type: in vivo, Ipomoea hederacea Jacq.
Source text: as §1, §2, §3, §4
For treatments comprised of formulated compounds, measured amounts of compounds were placed individually in 25 mL glass vials and diluted in a volume of 1.25% (v/v) Agri-Dex® crop oil concentrated to obtain 12× stock solutions. […] Application solutions were prepared by adding an appropriate amount of each stock solution (e.g., 1 mL) and diluted to the appropriate final concentrations with the addition of 10 mL of an aqueous mixture of 1.25% (v/v) crop oil concentrate so that the final spray solutions contained 1.25+/−0.05% (v/v) crop oil concentrate.
For treatments comprised of technical compounds, weighed amounts can be placed individually in 25 mL glass vials and dissolved in a volume of 97:3 v/v acetone/DMSO to obtain 12× stock solutions. […] Application solutions can be prepared by adding an appropriate amount of each stock solution (e.g., 1 mL) and diluted to the appropriate final concentrations with the addition of 10 mL of an aqueous mixture of 1.5% (v/v) crop oil concentrate so that the final spray solutions contain 1.25% (v/v) crop oil concentrate. When technical materials are used, the concentrated stock solutions can be added to the spray solutions so that the final acetone and DMSO concentrations of the application solutions are 16.2% and 0.5%, respectively.
as §5

[1] = Compound A Benzyl Ester 8.75 gae/ha

Cc1cnc(C2=NC(C)(C(C)C)C(=O)N2)c(C(=O)O)c1.N (racemic) [Imazapic ammonium, ammonium (±)-2-[4,5-dihydro-4-methyl-4-(1-methylethyl)-5-oxo-1H-imidazol-2-yl]-5-methyl-3-pyridinecarboxylic acid]
Visual Weed Control (%) - 25 DAA ECHCO Obs (ECHCO; Imazapic ammonium 17.5 gae/ha): 70%

CCc1cnc(C2=NC(C)(C(C)C)C(=O)N2)c(C(=O)O)c1.N (racemic) [Imazethapyr ammonium, ammonium (±)-2-[4,5-dihydro-4-methyl-4-(1-methylethyl)-5-oxo-1H-imidazol-2-yl]-5-ethyl-3-pyridinecarboxylate]
Visual Weed Control (%) - 25 DAA LEFCH Obs (LEFCH; Imazethapyr ammonium 8.75 gae/ha): 0%
Visual Weed Control (%) - 25 DAA LEFCH Obs (LEFCH; Imazethapyr ammonium 17.5 gae/ha): 0%
Visual Weed Control (%) - 25 DAA LEFCH Obs (LEFCH; Imazethapyr ammonium 35 gae/ha): 95%

COc1c(Cl)ccc(-c2nc(C(=O)O)c(Cl)c(N)c2F)c1F [Compound A Acid, 4-amino-3-chloro-6-(4-chloro-2-fluoro-3-methoxyphenyl)-5-fluoropyridine-2-carboxylic acid]
Visual Weed Control (%) - 25 DAA ECHCO Obs (ECHCO; Compound A Acid 4.38 gae/ha): 60%
Visual Weed Control (%) - 25 DAA ECHCO Obs (ECHCO; Compound A Acid 8.75 gae/ha): 65%
Visual Weed Control (%) - 25 DAA ECHCO Obs (ECHCO; Compound A Acid 17.5 gae/ha): 90%
Visual Weed Control (%) - 21 DAA IPOHE Obs (IPOHE; Compound A Acid 4.38 gae/ha): 0%
Visual Weed Control (%) - 21 DAA IPOHE Obs (IPOHE; Compound A Acid 8.75 gae/ha): 10%
Visual Weed Control (%) - 21 DAA IPOHE Obs (IPOHE; Compound A Acid 17.5 gae/ha): 30%

COc1c(Cl)ccc(-c2nc(C(=O)OCc3ccccc3)c(Cl)c(N)c2F)c1F [Compound A Benzyl Ester, benzyl ester of 4-amino-3-chloro-5-fluoro-6-(4-chloro-2-fluoro-3-methoxy-phenyl)pyridine-2-carboxylic acid]
Visual Weed Control (%) - 21 DAA IPOHE Obs (IPOHE; Compound A Benzyl Ester 4.38 gae/ha): 0%
Visual Weed Control (%) - 21 DAA IPOHE Obs (IPOHE; [1]): 10%
Visual Weed Control (%) - 21 DAA IPOHE Obs (IPOHE; Compound A Benzyl Ester 17.5 gae/ha): 25%
Visual Weed Control (%) - 25 DAA LEFCH Obs (LEFCH; [1]): 0%
